Assay results from US20110098296A1, “Thiazole And Oxazole Kinase Inhibitors” (priority 2007, published 2011).
Structures can show the parent of a compound that is named as a salt.

What was measured:
[1] = test system: Colo205 tumor cells; test: Method B: CellTiter-Glo Growth Inhibition Assay, Colo205; assay type: cell-based; conditions: Homo sapiens, COLO 205, 72 h, 3 days
Experimental: (§1) Human breast tumor cells (BT474) were cultured in RPMI, (Invitrogen, 22400) containing 10% fetal bovine serum (FBS). Human head and neck tumor cells (HN5) were cultured in low glucose DMEM (Invitrogen, 12320) containing 10% FBS. Human colon tumor cells (Colo205) were cultured in DMEM (Invitrogen, 10564) containing 10% FBS. Human melanoma cancer cells (SK-MEL-28) were incubated in DMEM (Invitrogen). All cell lines were maintained at 37° C. in a humidified 5% CO2, 95% air incubator. Cells were harvested using trypsin/EDTA, counted using a haemocytometer, and plated in 30 μL of the appropriate media described above, at the following densities, in a half-area, black-walled, 96-well tissue culture plate (Corning 3882): BT474 3,000 cells/well, HN5 500 cells/well, Colo205 3,000 cells/well, and SK-MEL-28 500 cells/well). The next day, compounds were diluted in DMEM containing […] gentamicin, from 10 mM stock solutions in DMSO. 30 μL/well of these dilutions were added to the 30 μL/well of media currently on the cell plates. Medium containing 0.6% DMSO was added to control wells. The final concentration of DMSO in all wells was 0.3%. Cells were incubated at 37° C., 5% CO2 for 3 days. Cell biomass was estimated using CellTiter-Glo® reagent (Promega G7571). Briefly, plates were removed from the incubator and allowed to equilibrate to rt for 30 minutes. 25-60 μL of CellTiter-Glo® reagent were added to each well of the treated cells and plates were shaken on an orbital plate shaker for 2 mins. Plates were incubated without shaking for 30 more mins and read in a luminometer with an integration time of 0.5 seconds per well. Percent inhibition of cell growth was calculated relative to vehicle-treated control wells. Concentration of compound that inhibits 50% of vehicle control cell growth (IC50) was interpolated using nonlinear regression (Levenberg-Marquardt) and the equation, y=V max*(1−(x/(K+x)))+Y2, where “K” was equal to the IC50.

[2] = test system: BT474 tumor cells; test: Method B: CellTiter-Glo Growth Inhibition Assay, BT474; assay type: cell-based; conditions: Homo sapiens, BT-474, 72 h, 3 days
Experimental: as §1

[3] = biological target: T1, ErbB2 (Homo sapiens, UniProt P04626); test: ErbB-2 substrate phosphorylation assay (HTRF); assay type: biochemical; conditions: Method (A): Enzyme Mix incubated with compound at 20° C. for 1 hr, reaction started by adding Substrate Mix
T1 construct: made in house; host or cells: baculovirus expression system
T1 sequence (P04626 23-1255): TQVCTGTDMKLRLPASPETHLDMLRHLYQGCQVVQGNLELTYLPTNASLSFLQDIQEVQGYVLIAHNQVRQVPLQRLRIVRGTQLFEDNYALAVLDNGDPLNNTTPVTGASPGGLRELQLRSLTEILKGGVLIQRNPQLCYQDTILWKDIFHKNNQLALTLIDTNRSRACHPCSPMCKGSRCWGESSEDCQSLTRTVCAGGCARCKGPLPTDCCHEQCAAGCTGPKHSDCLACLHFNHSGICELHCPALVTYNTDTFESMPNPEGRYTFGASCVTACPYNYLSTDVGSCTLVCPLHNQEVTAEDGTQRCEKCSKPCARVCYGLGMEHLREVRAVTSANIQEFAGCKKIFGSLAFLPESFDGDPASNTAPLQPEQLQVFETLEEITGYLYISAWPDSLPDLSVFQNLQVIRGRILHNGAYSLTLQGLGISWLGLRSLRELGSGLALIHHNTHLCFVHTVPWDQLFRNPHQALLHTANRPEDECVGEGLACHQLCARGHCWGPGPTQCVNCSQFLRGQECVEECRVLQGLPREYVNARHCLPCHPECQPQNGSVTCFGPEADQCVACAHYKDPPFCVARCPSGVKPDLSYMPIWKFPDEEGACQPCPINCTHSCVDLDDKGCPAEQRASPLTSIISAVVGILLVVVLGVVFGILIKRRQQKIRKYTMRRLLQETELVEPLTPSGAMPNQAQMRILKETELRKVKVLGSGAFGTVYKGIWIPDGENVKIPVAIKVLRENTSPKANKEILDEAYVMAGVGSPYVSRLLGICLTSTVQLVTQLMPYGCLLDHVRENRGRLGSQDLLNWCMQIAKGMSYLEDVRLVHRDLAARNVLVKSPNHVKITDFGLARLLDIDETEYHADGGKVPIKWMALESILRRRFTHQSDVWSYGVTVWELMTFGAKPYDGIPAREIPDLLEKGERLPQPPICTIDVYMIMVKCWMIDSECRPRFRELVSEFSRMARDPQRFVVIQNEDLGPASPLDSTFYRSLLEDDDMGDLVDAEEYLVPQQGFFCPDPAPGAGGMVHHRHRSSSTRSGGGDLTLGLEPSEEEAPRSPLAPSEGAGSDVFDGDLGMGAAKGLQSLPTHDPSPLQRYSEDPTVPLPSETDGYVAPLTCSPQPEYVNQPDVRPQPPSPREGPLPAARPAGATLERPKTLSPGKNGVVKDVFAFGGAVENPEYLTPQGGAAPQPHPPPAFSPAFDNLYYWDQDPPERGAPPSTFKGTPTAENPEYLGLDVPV
How it was run: (§2)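 Baculovirus-expressed kinase (0.8 nM EGFR or 10 nM ErbB2 in enzyme mix) with Peptide C 0.8 μM and ATP 20 μM (substrate-mix levels), MOPS pH 7.5, MnCl2; 90 min, 20 °C, HTRF anti-phosphotyrosine. Method A adds 1 h enzyme–compound preincubation; B none. pIC50, final compound 0.00027–47.6 μM.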

[4] = test system: HN5 tumor cells; test: Method B: CellTiter-Glo Growth Inhibition Assay, HN5; assay type: cell-based; conditions: Homo sapiens, 72 h, 3 days
Experimental: as §1

[5] = biological target: T2, EGFR (Homo sapiens, UniProt P00533); test: EGFR substrate phosphorylation assay (HTRF); assay type: biochemical; conditions: Method (A): Enzyme Mix incubated with compound at 20° C. for 1 hr, reaction started by adding Substrate Mix
T2 construct: made in house; host or cells: baculovirus expression system
T2 sequence (P00533 25-1210): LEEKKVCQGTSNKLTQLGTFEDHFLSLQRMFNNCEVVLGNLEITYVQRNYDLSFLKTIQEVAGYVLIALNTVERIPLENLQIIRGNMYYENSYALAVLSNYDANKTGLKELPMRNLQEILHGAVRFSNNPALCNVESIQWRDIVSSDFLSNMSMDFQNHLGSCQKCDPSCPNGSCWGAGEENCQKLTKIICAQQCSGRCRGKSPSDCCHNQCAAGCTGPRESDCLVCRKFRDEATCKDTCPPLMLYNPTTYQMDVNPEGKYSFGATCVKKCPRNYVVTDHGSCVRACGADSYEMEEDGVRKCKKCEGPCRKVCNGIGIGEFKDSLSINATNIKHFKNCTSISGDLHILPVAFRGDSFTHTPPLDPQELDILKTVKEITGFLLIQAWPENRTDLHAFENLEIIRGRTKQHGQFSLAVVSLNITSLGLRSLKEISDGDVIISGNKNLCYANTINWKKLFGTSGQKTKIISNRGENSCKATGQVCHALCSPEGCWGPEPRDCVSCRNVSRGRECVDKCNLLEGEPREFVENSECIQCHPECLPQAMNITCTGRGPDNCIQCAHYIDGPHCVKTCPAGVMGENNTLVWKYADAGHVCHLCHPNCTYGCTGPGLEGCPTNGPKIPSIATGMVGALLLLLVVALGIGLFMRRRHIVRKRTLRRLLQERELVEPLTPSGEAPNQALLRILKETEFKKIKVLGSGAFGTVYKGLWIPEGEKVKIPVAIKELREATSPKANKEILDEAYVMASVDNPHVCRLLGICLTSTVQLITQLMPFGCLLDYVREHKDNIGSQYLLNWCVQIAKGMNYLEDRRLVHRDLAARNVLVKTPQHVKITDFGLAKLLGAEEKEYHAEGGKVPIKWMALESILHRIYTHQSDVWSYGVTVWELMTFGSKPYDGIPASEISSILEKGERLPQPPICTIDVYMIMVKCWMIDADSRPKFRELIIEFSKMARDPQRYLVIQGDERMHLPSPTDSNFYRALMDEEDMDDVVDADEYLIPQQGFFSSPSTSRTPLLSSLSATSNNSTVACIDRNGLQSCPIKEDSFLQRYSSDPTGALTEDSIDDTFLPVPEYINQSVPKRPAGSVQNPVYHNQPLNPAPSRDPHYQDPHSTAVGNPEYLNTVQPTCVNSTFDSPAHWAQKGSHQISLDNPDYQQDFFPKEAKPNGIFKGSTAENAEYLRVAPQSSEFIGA
How it was run: as §2

[6] = test system: A375P F11s tumor cells; test: Method C: Cell Growth Inhibition Assay (CellTiter-Glo), A375P F11s; assay type: cell-based; conditions: Homo sapiens, 72 h, 3 days, 4-parameter fit
How it was run: (§3)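 Cells plated at 500 cells/well, dosed next day with 10-point 1:3 dilution series (0.2% final DMSO) and grown 3 days at 37 °C, 5% CO2. CellTiter-Glo luminescence (total ATP) served as cell-number surrogate; inhibition relative to DMSO controls, IC50 interpolated by 4-parameter fit.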

[7] = test system: HN5 tumor cells; test: Method C: Cell Growth Inhibition Assay (CellTiter-Glo), HN5; assay type: cell-based; conditions: Homo sapiens, 72 h, 3 days, 4-parameter fit
How it was run: as §3

[8] = test system: Colo205 tumor cells; test: Method C: Cell Growth Inhibition Assay (CellTiter-Glo), Colo205; assay type: cell-based; conditions: Homo sapiens, COLO 205, 72 h, 3 days, 4-parameter fit
How it was run: (§4)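 500 cells/well; next-day compound, 1:3 serial dilutions, 0.2% DMSO final; 3 d, 37° C, 5% CO2. Readout: CellTiter-Glo luminescence (total ATP as cell-number surrogate). IC50 from 4-parameter fit of % growth inhibition vs vehicle.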

[9] = test system: SK-MEL-3 tumor cells; test: Method C: Cell Growth Inhibition Assay (CellTiter-Glo), SK-MEL-3; assay type: cell-based; conditions: Homo sapiens, SK-MEL3, 72 h, 3 days, 4-parameter fit
How it was run: as §4

[10] = test system: SK-MEL-28 tumor cells; test: Method C: Cell Growth Inhibition Assay (CellTiter-Glo), SK-MEL-28; assay type: cell-based; conditions: Homo sapiens, SK-MEL-28, 72 h, 3 days, 4-parameter fit
How it was run: as §3

[11] = test system: BT474 tumor cells; test: Method C: Cell Growth Inhibition Assay (CellTiter-Glo), BT474; assay type: cell-based; conditions: Homo sapiens, BT-474, 72 h, 3 days, 4-parameter fit
[12] = test system: HT-29 tumor cells; test: Method C: Cell Growth Inhibition Assay (CellTiter-Glo), HT-29; assay type: cell-based; conditions: Homo sapiens, HT-29, 72 h, 3 days, 4-parameter fit
How it was run: as §3

Compound | IC50 [1] [nM] | IC50 [2] [nM] | IC50 [3] [nM] | IC50 [4] [nM] | IC50 [5] [nM] | IC50 [6] [nM] | IC50 [7] [nM] | IC50 [8] [nM] | IC50 [9] [nM] | IC50 [10] [nM] | IC50 [11] [nM] | IC50 [12] [nM]
Nc1nc(-c2cccc(NC(=O)c3c(F)cccc3F)c2)c(-c2ccnc(Nc3cccc(F)c3)n2)s1 [Example 7] | > 1000 | < 100 | < 100 | < 100 | < 100 | – | – | – | – | – | – | –
Nc1nc(-c2cccc(NC(=O)c3c(F)cccc3F)c2)c(-c2ccnc(Nc3cccc(CCS(N)(=O)=O)c3)n2)s1 [Example 8] | 100 to 1000 | < 100 | < 100 | < 100 | < 100 | – | – | – | – | – | – | –
Nc1nc(-c2cccc(NC(=O)c3c(F)cccc3F)c2)c(-c2ccnc(Nc3ccc4c(c3)OCC(=O)N4)n2)s1 [Example 9, hydrochloride] | > 1000 | < 100 | < 100 | < 100 | < 100 | – | – | – | – | – | – | –
COc1ccc(Nc2nccc(-c3sc(N)nc3-c3cccc(NC(=O)c4c(F)cccc4F)c3)n2)cc1N(C)C [Example 19, N-{3-[2-Amino-5-(2-{[3-(dimethylamino)-4-(methyloxy)phenyl]amino}-4-pyrimidinyl)-1,3-thiazol-4-yl]phenyl}-2,6-difluorobenzamide] | 100 to 1000 | < 100 | < 100 | < 100 | < 100 | – | – | – | – | – | – | –
Nc1nc(-c2cccc(NC(=O)c3c(F)cccc3F)c2)c(-c2ccnc(Nc3ccc4c(c3)NC(=O)CO4)n2)s1 [Example 20, N-[3-(2-Amino-5-{2-[(3-oxo-3,4-dihydro-2H-1,4-benzoxaziN-6-yl)amino]-4-pyrimidinyl}-1,3-thiazol-4-yl)phenyl]-2,6-difluorobenzamide] | > 1000 | < 100 | < 100 | < 100 | < 100 | – | – | – | – | – | – | –
O=C(Nc1cccc(-c2nc(NCCCN3CCOCC3)sc2-c2ccnc(Nc3cccc(F)c3)n2)c1)c1c(F)cccc1F [Example 30, 2,6-Difluoro-N-[3-(5-{2-[(3-fluorophenyl)amino]-4-pyrimidinyl}-2-{[3-(4-morpholinyl)propyl]amino}-1,3-thiazol-4-yl)phenyl]benzamide] | > 1000 | 100 to 1000 | < 100 | 100 to 1000 | < 100 | – | – | – | – | – | – | –
Nc1nc(-c2cccc(NC(=O)Cc3cccs3)c2)c(-c2ccnc(Nc3cccc(F)c3)n2)s1 [Example 64, N-[3-(2-Amino-5-{2-[(3-fluorophenyl)amino]-4-pyrimidinyl}-1,3-thiazol-4-yl)phenyl]-2-(2-thienyl)acetamide] | > 1000 | 100 to 1000 | 100 to 1000 | 100 to 1000 | < 100 | – | – | – | – | – | – | –
COc1ccc(Nc2nccc(-c3scnc3-c3cccc(NC(=O)Cc4cccs4)c3)n2)cc1OCCN(C)C [Example 78, N-{3-[5-(2-{[3-{[2-(Dimethylamino)ethyl]oxy}-4-(methyloxy)phenyl]amino}-4-pyrimidinyl)-1,3-thiazol-4-yl]phenyl}-2-(2-thienyl)acetamide] | 100 to 1000 | 100 to 1000 | < 100 | 100 to 1000 | < 100 | – | – | – | – | – | – | –
CN(C)Cc1cccc(Nc2nccc(-c3scnc3-c3cccc(NC(=O)Cc4cccs4)c3)n2)c1 [Example 81] | 100 to 1000 | 100 to 1000 | < 100 | 100 to 1000 | < 100 | – | – | – | – | – | – | –
CCN(CC)CCOc1cccc(Nc2nccc(-c3scnc3-c3cccc(NC(=O)Cc4cccs4)c3)n2)c1 [Example 82, N-[3-(5-{2-[(3-{[2-(Diethylamino)ethyl]oxy}phenyl)amino]-4-pyrimidinyl}-1,3-thiazol-4-yl)phenyl]-2-(2-thienyl)acetamide] | 100 to 1000 | 100 to 1000 | < 100 | 100 to 1000 | < 100 | – | – | – | – | – | – | –
CN(C)C1Cc2ccc(Nc3nccc(-c4scnc4-c4cccc(NC(=O)Cc5cccs5)c4)n3)cc2C1 (stereo not shown) [Example 83, N-{3-[5-(2-{[2-(Dimethylamino)-2,3-dihydro-1H-inden-5-yl]amino}-4-pyrimidinyl)-1,3-thiazol-4-yl]phenyl}-2-(2-thienyl)acetamide] | 100 to 1000 | < 100 | < 100 | 100 to 1000 | < 100 | – | – | – | – | – | – | –
O=C(Cc1cccs1)Nc1cccc(-c2ncsc2-c2ccnc(Nc3ccc4c(c3)OCC(=O)N4)n2)c1 [Example 85, N-[3-(5-{2-[(3-Oxo-3,4-dihydro-2H-1,4-benzoxazin-7-yl)amino]-4-pyrimidinyl}-1,3-thiazol-4-yl)phenyl]-2-(2-thienyl)acetamide hydrochloride] | > 1000 | 100 to 1000 | < 100 | 100 to 1000 | < 100 | – | – | – | – | – | – | –
O=C(Cc1cccs1)Nc1cccc(-c2ncsc2-c2ccnc(Nc3ccc4c(c3)NC(=O)CO4)n2)c1 [Example 86, N-[3-(5-{2-[(3-Oxo-3,4-dihydro-2H-1,4-benzoxaziN-6-yl)amino]-4-pyrimidinyl}-1,3-thiazol-4-yl)phenyl]-2-(2-thienyl)acetamide hydrochloride] | 100 to 1000 | 100 to 1000 | 100 to 1000 | 100 to 1000 | < 100 | – | – | – | – | – | – | –
CN(C)CCOc1ccc(Nc2nccc(-c3scnc3-c3cccc(NC(=O)c4c(F)cccc4F)c3)n2)cc1Cl [Example 89] | 100 to 1000 | < 100 | < 100 | < 100 | < 100 | – | – | – | – | – | – | –
O=C(Nc1cccc(-c2ncsc2-c2ccnc(Nc3ccc4c(c3)CNCC4)n2)c1)c1c(F)cccc1F [Example 91, 2,6-Difluoro-N-(3-{5-[2-(1,2,3,4-tetrahydro-7-isoquinolinylamino)-4-pyrimidinyl]-1,3-thiazol-4-yl}phenyl)benzamide] | 100 to 1000 | < 100 | < 100 | < 100 | < 100 | – | – | – | – | – | – | –
CCN(CC)CCOc1cccc(Nc2nccc(-c3scnc3-c3cccc(NC(=O)c4c(F)cccc4F)c3)n2)c1 [Example 92, N-[3-(5-{2-[(3-{[2-(Diethylamino)ethyl]oxy}phenyl)amino]-4-pyrimidinyl}-1,3-thiazol-4-yl)phenyl]-2,6-difluorobenzamide-formic acid] | 100 to 1000 | < 100 | < 100 | < 100 | < 100 | – | – | – | – | – | – | –
O=C1COc2cc(Nc3nccc(-c4scnc4-c4cccc(NC(=O)c5cc(F)ccc5F)c4)n3)ccc2N1 [Example 98, 2,5-Difluoro-N-[3-(5-{2-[(3-oxo-3,4-dihydro-2H-1,4-benzoxaziN-7-yl)amino]-4-pyrimidinyl}-1,3-thiazol-4-yl)phenyl]benzamide hydrochloride] | > 1000 | < 100 | < 100 | < 100 | < 100 | – | – | – | – | – | – | –
Cc1nc(-c2cccc(NC(=O)c3ccc(F)cc3)c2)c(-c2ccnc(Nc3ccc(OCCN(C)C)c(Cl)c3)n2)s1 [Example 134, N-[3-(5-{2-[(3-Chloro-4-{[2-(dimethylamino)ethyl]oxy}phenyl)amino]-4-pyrimidinyl}-2-methyl-1,3-thiazol-4-yl)phenyl]-4-fluorobenzamide] | – | – | < 100 | – | < 100 | > 1000 | 100 to 1000 | > 1000 | > 1000 | > 1000 | 100 to 1000 | 100 to 1000
